The values that follow come from article PMC7377361, “Pressurized DNA state inside herpes capsids—A novel antiviral target” (PLoS Pathogens, 2020).

Test [1] has as its system GFP-labeled HSV-1 virions. The test can be described thus: Binding of GFP-HSV-1 virions to the cell surface (confocal FM). It is filed as cell-based. To be noted: compound added to cell culture, then GFP-labeled HSV-1 virions. The text has this: This likely occurs due to compounds’ high positive charge leading to electrostatic binding of polycations to negatively charged glycoprotein receptors on the cell membrane, such as heparansulfate proteoglycans (HSPG)[75]. Optimizing compound permeability into cells can be facilitated by e.g. prodrug approach, lipid vesicle delivery, and nanoparticle delivery, as well as other pathways. Compound permeability will be optimized in the future. […] Furthermore, choosing a reconstituted nuclei system for the MOA-assay (as opposed to infecting a cell culture) provides the benefit of isolating the effect of the compound on the single step of viral DNA ejection while avoiding interference from other processes occurring within the cell during viral replication.
Vero cell monolayers grown on chamber slides (Lab-Tek) were infected with a GFP-expressing HSV-1(K26GFP) at a MOI of 0.1 PFU per cell. Vero cells were also incubated with the same virus that was previously treated with different concentrations of the compounds to condense the viral DNA. The concentration of the compounds was calculated as described above. […]
Supplementary file ppat.1008604.s003.pdf: S2 Fig Effect of the compounds on the binding of HSV-1 virions to the cell surface during infection. […] Cells were fixed at 2 hpi and assessed by the presence of a GFP virus signal (green). […]

The test system of the next test is NPC. The test can be described thus: Nuclear import assay (GST-NLS-EGFP) in isolated rat liver nuclei. The test is classed as biochemical. The note with it: cytosol and ATP regeneration system, 37 °C. As to the method: This was verified with a fluorescently labeled nuclear localization signal (NLS), added to purified rat liver nuclei incubated with cytosolic extracts (as a source of soluble import factors) supplemented with an ATP regeneration system, see Supporting Materials for experimental description and S4A Fig. These controls were also reproduced with a digitonin-permeabilized cell assay, which accurately recapitulates capsid-nucleus binding and nuclear import in living cells; see Supporting Materials and data shown in S4B Fig. In agreement with observations in the isolated nuclei system (Fig 3B), we also confirmed via a digitonin-permeabilized cell assay that none of the three compounds interfered with capsid-NPC binding in cells. Attachment of GFP-capsids to nuclei was visualized with SR-SIM (S4C Fig). The addition of WGA prevented capsid binding, showing capsid-NPC binding specificity (S4C Fig).
Rat liver cell nuclei were incubated with GST-NLS-EGFP at 37 °C for 40 min in CBB buffer containing: (i) rat liver cell cytosol, (ii) 1 mg/mL BSA, and (iii) ATP regeneration system. The complete binding mixture was loaded onto coverslips and processed for fluorescence imaging as described above. When indicated, nuclei were preincubated with the polyvalent cationic agents at the concentrations described above for 2 h before performing import assays. […]

Where no end group is shown, it is not given here.

For RRRRR [Arg^5+], the “virus adsorption to the cell” value in test [1] is “prevents virus adsorption to the cell”. For the same compound, the “nuclear import of GST-NLS-GFP protein” value in the test on NPC was “not blocked”.
Taken in the same sequence, the figures for `NCCCN(CCCN)CCCCN(CCCN)CCCN` [DAB-Am-4] were “prevents virus adsorption to the cell” and “not blocked”.
